Results reported in patent US5308840A, “Substituted or unsubstituted benzhydryl heteroalkyl-substituted aminophenol compounds and pharmaceutical compositions thereof” (Green Cross Corporation, priority 1991, dated 1994).
Converted amounts (≈) assume the structure as drawn.

Tests used:
[1] = tested on: lipoperoxide production in rat cerebral tissues; assay: Inhibition of lipoperoxide production in rat cerebral tissues (TBA reaction in cerebral tissue homogenate); assay type: biochemical; settings: 37° C., 120 minutes, test concentrations 10, 1, 0.1, 0.01, 0.001 μg/ml, absorbance 535 nm, least square method
Procedure: Inhibition of lipoperoxide production in rat cerebral tissues
(1) Preparation of cerebral tissue homogenate
A rat was slaughtered with carbon dioxide, and immediately after blood sampling from the heart, brain was removed and weighed. A 5% (w/v) tissue homogenate was prepared by a homogenizer with PBS (pH 7.3). Homogenation was conducted two times for 15 seconds (scale 10) while cooling.
(2) Inhibition of lipoperoxide production in rat cerebral 4issues.
Each of the test drugs (50 μl, concentration 10, 1, 0.1, 0.01, 0.001 μg/ml) was placed in a polypropylene tube, to which was added cerebral tissue homogenate (1 ml), followed by incubation at 37° C. in a thermobath for 120 minutes. Thereafter, 1% phosphoric acid (0.3 ml), 10% phosphotungstic acid (0.2 ml) and 0.67% TBA (tiobarbituric acid) agent (1 ml) were added thereto while stirring as necessary, and immediately thereafter, TBA reaction was conducted in a boiling water bath for 20 minutes. The mixture was cooled in ice water for 5 minutes, and added with n-butanol (4 ml). After 10 minutes' shaking extraction, it was centrifuged at 3000 rpm and at room temperature (low temperature causes change of absorbance) for 10 minutes. The absorbance of the butanol layer (upper layer) was measured at a wavelength of 535 nm. The difference between the absorbance of the control incubated at 37° C. (added with dimethylsulfoxide only) and that of the control cooled at 2° C. (added with dimethylsulfoxide only) was taken as the amount of 100% lipoperoxide production, and the percent suppression of the drug was calculated from the following formula. [formula] wherein A is the difference of absorbance of 37° C. control and 2° C. control, and B is the difference of absorbance of a drug sample and 2° C. control. The IC50 (μg/ml) was calculated by least square method using the percent inhibition at each concentration.

[2] = tested on: TPA-induced mouse ear edema; assay: Effect on TPA-induced mouse ear edema test; assay type: in vivo, male ICR mice; settings: inhibition of ear edema (ear weight difference) vs control; TPA 1 μg/20 μl, topical; drug dissolved in TPA solution (100 μg/20 ml); 5 hours
Procedure: Effect on TPA-induced mouse ear edema test
Male ICR mice weighing about 20 g were etherized, and fixed at the dorsal position. TPA (12-O-tetradecanoylphorbol-13-acetate: phorbol 12-myristate-13-acetate, 1 μg/20 μl) dissolved in a mixed solution of acetone: pyridine: water (97:2:1) was coated on the left year while drying with a dryer. Five hours later, the mice were slaughtered by vertebral dislocation. The both ears were stamped out with a circle chisel (punch), and weighed. The weight difference between the both ears was taken as an index of the degree of edema, and the percent inhibition was calculated from the comparison with the control. Each drug was dissolved in TPA solution (100 μg/20 ml).

Structure (SMILES)	IC50 [1] [µg/mL]	Inhibition (%) [2] [%]
CN(C)CCOC(c1ccc(Cl)cc1)c1ccc(O)c(N(C)C)c1 (stereo not drawn) [Compound 1, 2-[1-(4-chlorophenyl)-1-(3-dimethylamino-4-hydroxyphenyl)methoxy]-N,N-dimethylethanamine]	0.39 (≈ 1.12 µM)	–
CN1CCN(C(c2ccc(Cl)cc2)c2ccc(O)c(N(C)C)c2)CC1 (stereo not drawn) [Compound 3, 4-[1-(4-chlorophenyl)-1-(4-methylpiperazino)]methyl-2-dimethylaminophenol]	–	71.1
CN(C)CCN(Cc1ccc(O)c(N(C)C)c1)c1ccccc1 [Compound 4, 2-dimethylamino-4-[N-(2-dimethylaminoethyl)-N-phenyl]aminomethylphenol]	–	75.0
CN(C)CC=C(c1ccc(Cl)cc1)c1ccc(O)c(N(C)C)c1 [Compound 5, 1-(4-chlorophenyl)-3-dimethylamino-1-(3-dimethylamine-4-hydroxyphenyl)-1-propene]	0.20 (≈ 0.604 µM)	75.0
CN(C)CCC(c1ccc(Cl)cc1)c1ccc(O)c(N(C)C)c1 (stereo not drawn) [Compound 6, 4-[1-(4-chlorophenyl)-3-dimethylaminopropyl]-2-dimethylaminophenol]	0.31 (≈ 0.931 µM)	62.7
CN(C)c1cc(CN2CCN(C(c3ccccc3)c3ccc(Cl)cc3)CC2)ccc1O (stereo not drawn) [Compound 7, 4-[4-(4-chlorobenzhydryl)piperazino]methyl-2-dimethylaminophenol]	0.16 (≈ 0.367 µM)	54.6
Cc1ccc(O)c(N(C)CCOC(c2ccccc2)c2ccccc2)c1 [Compound 10]	0.23 (≈ 0.662 µM)	–
Cc1ccc(O)c(NC(C)CN2c3ccccc3Sc3ccccc32)c1 (stereo not drawn) [Compound 12, 2-[1-methyl-2-(phenothiazine-10-yl)ethyl]amino-4-methylphenol]	0.086 (≈ 0.237 µM)	74.7
Cc1ccc(O)c(NCCCN2CCN(C(c3ccccc3)c3ccccc3)CC2)c1 [Compound 14, 2-[3-(4-benzhydrylpiperazino)propyl]amino-4-methylphenol]	0.038 (≈ 0.0914 µM)	77.8
Cc1ccc(O)c(NCCCN2CCN(C(c3ccccc3)c3ccc(Cl)cc3)CC2)c1 (stereo not drawn) [Compound 15, 2-[3-[4-(4-chlorobenzhydryl)piperazino]propyl]amino-4-methylphenol]	0.12 (≈ 0.267 µM)	86.7
Cc1ccc(O)c(N(C)CCCN2CCN(C(c3ccccc3)c3ccccc3)CC2)c1 [Compound 16, 2-[N-[3-(4-benzhydrylpiperazino)propyl]-N-methyl]amino-4-methylphenol]	0.30 (≈ 0.698 µM)	50.9
Cc1ccc(O)c(NCCCN2CCCN(C(c3ccccc3)c3ccc(Cl)cc3)CC2)c1 (stereo not drawn) [Compound 17, 2-[3-[4-(4-chlorobenzhydryl)homopiperazino)propyl]amino-4-methylphenol]	0.013 (≈ 0.028 µM)	87.0
Cc1ccc(O)c(NCCCN2CCC(C(O)(c3ccccc3)c3ccccc3)CC2)c1 [Compound 18, 2-[3-(4-hydroxydiphenylmethyl-1-piperidinyl)propyl]amino-4methylphenol]	0.029 (≈ 0.0673 µM)	89.0
Cc1ccc(O)c(NCCCN2CCC(OC(c3ccccc3)c3ccccc3)CC2)c1 [Compound 19, 2-[3-(4-benzhydryloxy-1-piperidinyl)propyl]amino-4-methylphenol]	0.036 (≈ 0.0836 µM)	85.5
Cc1cc(NCCCN2CCN(C(c3ccccc3)c3ccc(Cl)cc3)CC2)c(O)c(C(C)(C)C)c1 (stereo not drawn) [Compound 20, 6-tert-butyl-2-[3-[4-(4-chlorobenzhydryl)piperazino]propyl]amino-4-methylphenol]	0.066 (≈ 0.13 µM)	63.8
Cc1ccc(O)c(N(CCCN2CCN(C(c3ccccc3)c3ccc(Cl)cc3)CC2)C(C)C)c1 (stereo not drawn) [Compound 21, 2-[N-[3-[4-(4-chlorobenzhydryl)piperazino]propyl]-N-isopropyl]amino-4-methylphenol]	0.44 (≈ 0.894 µM)	44.4
Cc1ccc(O)c(N(CCCN2CCC(C(O)(c3ccccc3)c3ccccc3)CC2)C(C)C)c1 [Compound 23, 2-[N-[3-(4-hydroxydiphenylmethyl-1-piperidinyl)propyl]-N-isopropyl]amino-4-methylphenol]	0.79 (≈ 1.67 µM)	39.2
Cc1ccc(O)c(NCCCN2CCC(C(O)(c3ccccc3)c3ccc(Cl)cc3)CC2)c1 (stereo not drawn) [Compound 26, 2-[3-[4-(4-chlorophenyl)hydroxyphenylmethyl-1-piperidinyl]propyl]amino-4-methylphenol]	–	97.5
Cc1ccc(O)c(NCCCN2CCN(C(c3ccc(F)cc3)c3ccc(F)cc3)CC2)c1 [Compound 32, 2-[3-[4-(4,4'-difluorobenzhydryl)piperazino]propyl]amino-4-methylphenol]	0.10 (≈ 0.221 µM)	64.1
